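96-well plates; 48 h exposure; 5 concentrations. Endpoints by linear interpolation between flanking doses. Not reached: highest tested concentration assigned. GI50: concentration for 50% inhibition of growth. At the TGI there is no net growth.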
What was measured:
Assay in all cases: NCI-60 cell line screen, 48 h
A549 NSCLC = tested on: A549 NSCLC
OVCAR-8 ovarian = tested on: OVCAR-8 ovarian
KM12 colon = tested on: KM12 colon
MALME-3M melanoma = tested on: MALME-3M melanoma
TK-10 renal = tested on: TK-10 renal
SR leukemia = tested on: SR leukemia
HCC-2998 colon = tested on: HCC-2998 colon
NCI-H226 lung = tested on: NCI-H226 lung
LOX IMVI melanoma = tested on: LOX IMVI melanoma

| Structure (SMILES) | TGI (A549 NSCLC) | TGI (OVCAR-8 ovarian) | TGI (KM12 colon) | TGI (MALME-3M melanoma) | TGI (TK-10 renal) | TGI (SR leukemia) | TGI (HCC-2998 colon) | TGI (NCI-H226 lung) | GI50 (LOX IMVI melanoma) | TGI (LOX IMVI melanoma) | GI50 (OVCAR-8 ovarian) | GI50 (KM12 colon) | GI50 (TK-10 renal) | GI50 (HCC-2998 colon) | GI50 (NCI-H226 lung) |
| --- | --- | --- | --- | --- | --- | --- | --- | --- | --- | --- | --- | --- | --- | --- | --- |
| C[Si](C)(C)OC1(C#N)C2C3CC4C2C(=O)C2C4C3C21 (stereo not given) | > 100 µM | > 100 µM | > 100 µM | > 100 µM | > 100 µM | > 100 µM | > 100 µM | > 100 µM |  |  |  |  |  |  |  |
| Cn1c2c(cc(S(=O)(=O)c3ccccc3)c1=O)CCc1c-2cnn1-c1ccc(Cl)cc1 |  | 6.22 µM | > 100 µM |  | 5.17 µM |  | > 100 µM | 4.94 µM | 4.09 µM | 17.3 µM | 2.73 µM | 5.12 µM | 2.26 µM | 7.31 µM | 2.22 µM |
| CCC1CN2CCc3cc(OC)c(OC)cc3C2CC1CC1c2cc(OC)c(OC)cc2CCN1C(=O)C1CCCN1C(=O)OCc1ccccc1 (stereo not given) | 39.2 µM | 31.7 µM | 30.1 µM | 32.4 µM | 38.6 µM |  | 30 µM | 30.9 µM |  | 29.1 µM |  |  |  |  |  |
| CC(=O)OC1CCn2nnc(CO[Si](C)(C)C(C)(C)C)c21 (stereo not given) | > 100 µM | > 100 µM | > 100 µM | > 100 µM | > 100 µM | > 100 µM | > 100 µM | > 100 µM |  |  |  |  |  |  |  |
| CCOC(=O)C(=O)Nc1c(CC)cccc1C(C)C | > 100 µM | > 100 µM | > 100 µM | > 100 µM | > 100 µM |  | > 100 µM | > 100 µM |  | > 100 µM |  |  |  |  |  |
| CCOC(=O)C(C)(c1cn(C)c2ccccc12)c1cn(C)c2ccccc12 | > 100 µM | > 100 µM | > 100 µM | > 100 µM | > 100 µM |  | > 100 µM | > 100 µM |  |  |  |  |  |  |  |
| O=C(O)C1(P(=O)(O)O)CC1 | > 100 µM | > 100 µM | > 100 µM | > 100 µM | > 100 µM |  | > 100 µM |  |  |  |  |  |  |  |  |
| O=C1C(=O)N(c2ccc(Cl)c(Cl)c2)C(=O)C(=O)C1c1nc2ccccc2s1 | > 100 µM | > 100 µM |  | > 100 µM | > 100 µM | > 100 µM | > 100 µM | > 100 µM |  | > 100 µM |  |  |  |  |  |
| COc1ccc(C2CC(c3cc(OC)c(OC)c(OC)c3)=NN2C(C)=O)cc1OCC(=O)Nc1nc2ccc(C(F)(F)F)cc2s1 (stereo not given) |  | > 100 µM |  |  | 7.77 µM |  | > 100 µM |  | 3.36 µM | > 100 µM | 3.36 µM |  | 2.85 µM | > 100 µM |  |
| CN(C)c1nc(=Nc2ccc3ccccc3c2)ss1 | > 100 µM | > 100 µM | > 100 µM | > 100 µM | 71.1 µM | 75.3 µM | > 100 µM | > 100 µM |  |  |  |  |  |  |  |
| c1ccc(SC(CCCCC(Sc2ccccc2)Sc2ccccc2)Sc2ccccc2)cc1 | > 100 µM | > 100 µM | > 100 µM |  | > 100 µM | > 100 µM | > 100 µM |  |  | > 100 µM |  |  |  |  |  |
| COc1cc(C(=O)C/C(CCC(=O)Nc2ccccc2[N+](=O)[O-])=N\NC(=O)CC#N)ccc1O | > 100 µM | > 100 µM | > 100 µM | > 100 µM | > 100 µM |  | > 100 µM | > 100 µM |  | > 100 µM |  |  |  |  |  |
| COc1ccc(C2=C(Cl)c3cc(OC)c(OC)cc3C2Cl)cc1OC (stereo not given) | 42 µM | 39 µM |  | 40.6 µM | 46.3 µM |  |  |  |  | 31.1 µM |  |  |  |  |  |
| C=C1COC(/C=C(\C)CC/C=C(\C)CCl)C1 (stereo not given) | > 100 µM | > 100 µM | > 100 µM |  | > 100 µM |  | > 100 µM | > 100 µM |  | > 100 µM |  |  |  |  |  |
| Brc1cccc(C2SCc3nc4ccccc4n32)c1 (stereo not given) | > 100 µM | 60.7 µM | 42.7 µM | 77.5 µM | 65.1 µM | 57.7 µM |  | 27 µM |  | 28.6 µM |  |  |  |  |  |
| O=C1OC(CCCl)(c2ccccc2)CC1CN1CCOCC1 (stereo not given) | > 100 µM | 38.5 µM | 47.7 µM | 33.5 µM | 30.5 µM |  | > 100 µM | 28 µM |  | 83.1 µM |  |  |  |  |  |
| Cc1c(C#N)c(=O)[nH]c(=O)n1CCN1CCN(C(=O)NCCCCCCNC(=O)N2CCN(CCn3c(C)c(C#N)c(=O)[nH]c3=O)CC2)CC1 | > 100 µM | > 100 µM |  |  | > 100 µM |  | > 100 µM |  |  | > 100 µM |  |  |  |  |  |
| CCCCCCc1cc(C(=O)Nc2cccc(C(F)(F)F)c2)nc(N)n1 | > 100 µM |  | > 100 µM | > 100 µM | > 100 µM | > 100 µM | > 100 µM | > 100 µM |  | > 100 µM |  |  |  |  |  |
| CS(=O)(=O)Oc1cccc(/C=N/N=C(\N)NO)c1 | > 100 µM | > 100 µM | > 100 µM | > 100 µM | 27.9 µM | > 100 µM | 59.1 µM | 95.6 µM |  |  |  |  |  |  |  |
| Nn1c(-c2ccccc2Cl)nc2ccccc2c1=O | > 100 µM | > 100 µM | > 100 µM | > 100 µM | > 100 µM |  | > 100 µM | > 100 µM |  |  |  |  |  |  |  |
| COc1cc2c(cc1OC(=O)CC(C)O)C1C(OC2=O)C(OC(C)=O)C=C2CCN(C)[C@H]21 (stereo not given in full) | > 100 µM | > 100 µM | > 100 µM |  | 65.1 µM | > 100 µM | > 100 µM | 65.9 µM |  | > 100 µM |  |  |  |  |  |

Reference: PubChem BioAssay (NCI)
